Columns and labels:
AHR [1] = target: T1, AHR (Homo sapiens, UniProt P35869); assay: In vitro assay 2: agonism in human cell line (transactivation assay)
T1 sequence (P35869 11-848): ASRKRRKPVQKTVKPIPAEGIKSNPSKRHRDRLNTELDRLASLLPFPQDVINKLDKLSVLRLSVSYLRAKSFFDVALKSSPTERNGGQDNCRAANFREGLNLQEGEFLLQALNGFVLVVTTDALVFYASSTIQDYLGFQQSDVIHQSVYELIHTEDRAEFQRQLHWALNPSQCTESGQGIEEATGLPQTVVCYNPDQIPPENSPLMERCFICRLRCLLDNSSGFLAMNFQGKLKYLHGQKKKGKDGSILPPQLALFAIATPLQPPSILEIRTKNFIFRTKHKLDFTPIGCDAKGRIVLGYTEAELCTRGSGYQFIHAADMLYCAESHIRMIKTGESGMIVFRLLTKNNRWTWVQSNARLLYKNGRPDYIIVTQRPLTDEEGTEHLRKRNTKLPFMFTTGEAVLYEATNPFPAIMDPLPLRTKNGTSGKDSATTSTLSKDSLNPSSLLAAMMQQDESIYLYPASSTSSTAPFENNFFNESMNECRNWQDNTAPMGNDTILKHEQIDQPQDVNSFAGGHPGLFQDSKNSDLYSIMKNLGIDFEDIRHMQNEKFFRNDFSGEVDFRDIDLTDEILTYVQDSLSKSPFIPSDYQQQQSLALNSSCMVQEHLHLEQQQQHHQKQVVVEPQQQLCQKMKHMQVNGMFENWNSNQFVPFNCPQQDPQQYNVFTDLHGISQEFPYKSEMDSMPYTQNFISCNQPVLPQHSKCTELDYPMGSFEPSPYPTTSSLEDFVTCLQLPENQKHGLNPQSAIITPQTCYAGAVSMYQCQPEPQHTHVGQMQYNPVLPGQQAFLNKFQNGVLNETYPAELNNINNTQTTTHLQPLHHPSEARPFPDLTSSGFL
Description: Transactivation Assay in Human Cell Line (In Vitro Assays 1 and 2)
Transactivation assays were carried out in U87 glioblastoma cells (ATCC) endogenously expressing AHR. In addition the cells were stably transfected with an AHR inducible firefly luciferase reporter gene construct that carried AHR-binding sites (DRE) in its promoter and a renilla reporter gene construct with constitutively active promoter.
In Vitro Assay 2: Agonism in Human Cell Line
Cells in medium (tryptophan free RPMI, 1% FCS, 2 mM Glutamine) were grown for 20 hours in absence (negative control) or presence of increasing concentrations of test compounds (typical dilutions: 72 pmol/L, 0.25 nmol/L, 0.89 nmol/L; 3.1 nmol/L, 11 nmol/L, 38 nmol/L, 130 nmol/L, 470 nmol/L, 1.6 μmol/L, 5.7 μmol/L and 20 μmol/L in duplicates). As positive activation control cells were incubated with 300 μM kynurenic acid. Normalization was done by positive and negative controls.
Firefly luciferase activity was determined by the SteadyGlo Luciferase Assay System (Promega, #2520).

AHR [2] = target: T1, AHR; assay: In vitro assay 1: antagonism in human cell line (transactivation assay, kynurenic acid prestimulated); details: Assay 1: AHR-luc Hum Antagonism IC50 [M], 150 μM kynurenic acid, 20 hours, firefly luciferase
[3] = read-out: Assay 2: AHR-luc Hum Agonism IC50, no kynurenic acid, 20 hours, firefly luciferase
[4] = Assay 2: AHR-luc Hum Agonism IC50 [M], no kynurenic acid, 20 hours, firefly luciferase

Structure (SMILES)	IC50 (AHR [1]; [3]) [M]	IC50 (AHR [2]) [M]	IC50 (AHR [1]; [4]) [M]
O=C(NC(CO)C1CCOC1)c1cc(-c2ccc(OC(F)F)cc2)nn(-c2cccc(F)c2)c1=O (single isomer, unassigned) [Example 148, 6-[4-(Difluoromethoxy)phenyl]-2-(3-fluorophenyl)-N-{(2-hydroxy-1-tetrahydrofuran-3-yl)ethyl}-3-oxo-2,3-dihydropyridazine-4-carboxamide]	> 2e-05	5.33e-07	–
O=C(NCC(O)C(F)(F)F)c1cc(-c2ccc(C(F)(F)F)cc2)nn(-c2cccc(F)c2)c1=O (racemic) [Example 242, 2-(3-Fluorophenyl)-3-oxo-N-[(2RS)-3,3,3-trifluoro-2-hydroxypropyl]-6-[4-(trifluoromethyl)phenyl]-2,3-dihydropyridazine-4-carboxamide]	–	> 2e-05	1.18e-05
O=C(NC[C@@H](O)C(F)(F)F)c1cc(-c2ccc(Cl)c(Cl)c2)nn(-c2cccc(F)c2)c1=O (single isomer, unassigned) [Example 299, 6-(3,4-Dichlorophenyl)-2-(3-fluorophenyl)-3-oxo-N-(3,3,3-trifluoro-2-hydroxypropyl)-2,3-dihydropyridazine-4-carboxamide]	–	7.42e-07	> 2e-05
O=C(N[C@H]1CCC[C@@H]1O)c1cc(-c2ccc(Cl)cc2)nn(-c2cccc(F)c2)c1=O (single isomer, unassigned) [Example 125, 6-(4-Chlorophenyl)-2-(3-fluorophenyl)-N-(trans-2-hydroxycyclopentyl)-3-oxo-2,3-dihydropyridazine-4-carboxamide]	> 2e-05	1.86e-07	–
CC(C)(O)C(O)CNC(=O)c1cc(-c2ccc(Cl)cc2)nn(-c2cccc(F)c2)c1=O (racemic) [Example 322, 6-(4-chlorophenyl)-N-[(2RS)-2,3-dihydroxy-3-methylbutyl]-2-(3-fluorophenyl)-3-oxo-2,3-dihydropyridazine-4-carboxamide]	–	1.14e-07	> 2e-05
Cc1ccc(-c2cc(C(=O)NC(CO)C3CC3)c(=O)n(-c3cccc(F)c3)n2)cc1 (racemic) [Example 236, N-[(1RS)-1-Cyclopropyl-2-hydroxyethyl]-2-(3-fluorophenyl)-6-(4-methylphenyl)-3-oxo-2,3-dihydropyridazine-4-carboxamide]	–	8.23e-08	> 2e-05
O=C(NC(CO)C1CCOC1)c1cc(-c2ccc(Cl)cc2)nn(-c2cccc(F)c2)c1=O (single isomer, unassigned) [Example 41, 6-(4-Chlorophenyl)-2-(3-fluorophenyl)-N-[2-hydroxy-1-(tetrahydrofuran-3-yl)ethyl]-3-oxo-2,3-dihydropyridazine-4-carboxamide]	> 2e-05	2.15e-07	–
C[C@@H](CO)NC(=O)c1cc(-c2ccc(N(C)C)c(Cl)c2)nn(-c2cccc(F)c2)c1=O [Example 377, 6-[3-chloro-4-(dimethylamino)phenyl]-2-(3-fluorophenyl)-N-[(2S)-1-hydroxypropan-2-yl]-3-oxo-2,3-dihydropyridazine-4-carboxamide]	–	1.36e-07	> 2e-05
CC(C)[C@@H](CO)NC(=O)c1cc(-c2ccc(Cl)c(F)c2)nn(-c2cc(F)cc(F)c2)c1=O [Example 401, 6-(4-chloro-3-fluorophenyl)-2-(3,5-difluorophenyl)-N-[(2S)-1-hydroxy-3-methylbutan-2-yl]-3-oxo-2,3-dihydropyridazine-4-carboxamide]	–	1e-07	> 2e-05
O=C(NCC(O)C(F)(F)F)c1cc(-c2ccc(Cl)c(F)c2)nn(-c2cccc(F)c2)c1=O (single isomer, unassigned) [Example 283, 6-(4-chloro-3-fluorophenyl)-2-(3-fluorophenyl)-3-oxo-N-(3,3,3-trifluoro-2-hydroxypropyl)-2,3-dihydropyridazine-4-carboxamide]	–	1.91e-07	> 2e-05
COCC(O)CNC(=O)c1cc(-c2ccc(C)cc2)nn(-c2cccc(F)c2)c1=O (single isomer, unassigned; enantiomer 2) [Example 18, 2-(3-Fluorophenyl)-N-(2-hydroxy-3-methoxypropyl)-6-(4-methylphenyl)-3-oxo-2,3-dihydropyridazine-4-carboxamide, Enantiomer 2]	> 2e-05	3.39e-07	–
O=C(NC(CO)C1CCOC1)c1cc(-c2ccc(OC(F)F)cc2)nn(-c2cccc(F)c2)c1=O (single isomer, unassigned) [Example 146, 6-[4-(Difluoromethoxy)phenyl]-2-(3-fluorophenyl)-N-{(2-hydroxy-1-tetrahydrofuran-3-yl)ethyl}-3-oxo-2,3-dihydropyridazine-4-carboxamide]	> 2e-05	2.94e-07	–
C[C@@H](CO)NC(=O)c1cc(-c2ccc(Cl)cc2)nn(-c2cc(Cl)cc(Cl)c2)c1=O [Example 309, 6-(4-Chlorophenyl)-2-(3,5-dichlorophenyl)-N-[(2S)-1-hydroxypropan-2-yl]-3-oxo-2,3-dihydropyridazine-4-carboxamide]	–	9.87e-07	> 2e-05
O=C(NC(CO)C1CC1)c1cc(-c2ccc(Cl)cc2)nn(-c2cccc(F)c2)c1=O (single isomer, unassigned; (+)) [Example 195, (+)-6-(4-Chlorophenyl)-N-(1-cyclopropyl-2-hydroxyethyl)-2-(3-fluorophenyl)-3-oxo-2,3-dihydropyridazine-4-carboxamide]	> 2e-05	2.5e-07	–

Stronger by IC50 (AHR [2]), values ahead:

IC50 (AHR [1]; [3]) [M]	IC50 (AHR [2]) [M]	IC50 (AHR [1]; [4]) [M]	Structure (SMILES)
–	4.47e-08	> 2e-05	O=C(NCC(O)C(F)(F)F)c1cc(-c2ccc(OC(F)F)cc2)nn(-c2cccc(F)c2)c1=O (stereo not shown) [Example 120, 6-[4-(Difluoromethoxy)phenyl]-2-(3-fluorophenyl)-3-oxo-N-(3,3,3-trifluoro-2-hydroxypropyl)-2,3-dihydropyridazine-4-carboxamide]
–	3.82e-08	> 2e-05	COCCC(CO)NC(=O)c1cc(-c2ccc(C(F)(F)F)cc2)nn(-c2cccc(F)c2)c1=O (racemic) [Example 259, 2-(3-Fluorophenyl)-N-[(2RS)-1-hydroxy-4-methoxybutan-2-yl]-3-oxo-6-[4-(trifluoromethyl)phenyl]-2,3-dihydropyridazine-4-carboxamide]
–	6.97e-08	> 2e-05	COc1ccc(-c2cc(C(=O)N[C@@H]3CCC[C@@H]3O)c(=O)n(-c3cccc(F)c3)n2)cc1 [Example 139, 2-(3-Fluorophenyl)-N-[(1R,2S)-2-hydroxycyclopentyl]-6-(4-methoxyphenyl)-3-oxo-2,3-dihydropyridazine-4-carboxamide]
–	7.88e-08	> 2e-05	CC(C)(O)CNC(=O)c1cc(-c2ccc(Cl)cc2)nn(-c2cccc(F)c2)c1=O [Example 188, 6-(4-Chlorophenyl)-2-(3-fluorophenyl)-N-(2-hydroxy-2-methylpropyl)-3-oxo-2,3-dihydropyridazine-4-carboxamide]
> 2e-05	6.58e-08	–	Cc1ccc(-c2cc(C(=O)NCC(O)C(F)(F)F)c(=O)n(-c3cccc(F)c3)n2)cc1 (single isomer, unassigned; enantiomer 2) [Example 6, 2-(3-Fluorophenyl)-6-(4-methylphenyl)-3-oxo-N-(3,3,3-trifluoro-2-hydroxypropyl)-2,3-dihydropyridazine-4-carboxamide, enantiomer 2]
–	3.67e-08	> 2e-05	O=C(N[C@H]1CCCC[C@@H]1O)c1cc(-c2ccc(Cl)cc2)nn(-c2cccc(F)c2)c1=O (relative stereo) [Example 117, 6-(4-chlorophenyl)-2-(3-fluorophenyl)-N-(trans-2-hydroxycyclohexyl)-3-oxo-2,3-dihydropyridazine-4-carboxamide]
> 2e-05	5.64e-08	–	O=C(NCC(O)C(F)(F)F)c1cc(-c2ccc(Cl)cc2)nn(-c2cc(F)cc(F)c2)c1=O (single isomer, unassigned) [Example 46, 6-(4-Chlorophenyl)-2-(3,5-difluorophenyl)-3-oxo-N-(3,3,3-trifluoro-2-hydroxypropyl)-2,3-dihydropyridazine-4-carboxamide]
–	4.59e-08	> 2e-05	O=C(NC(CO)C1CCCO1)c1cc(-c2ccc(C(F)(F)F)cc2)nn(-c2cccc(F)c2)c1=O (single isomer, unassigned) [Example 339, 1,4-anhydro-2,3,5-trideoxy-5-[({2-(3-fluorophenyl)-3-oxo-6-[4-(trifluoromethyl)phenyl]-2,3-dihydropyridazin-4-yl}carbonyl)amino]hexitol]
–	4.84e-09	> 2e-05	O=C(NC(CO)C1CC1)c1cc(-c2ccc(C(F)(F)F)cc2)nn(-c2cccc(F)c2)c1=O (single isomer, unassigned; (-)) [Example 351, (−)-N-(1-cyclopropyl-2-hydroxyethyl)-2-(3-fluorophenyl)-3-oxo-6-[4-(trifluoromethyl)phenyl]-2,3-dihydropyridazine-4-carboxamide]

Reference: US11040035B2, “3-oxo-2,6-diphenyl-2,3-dihydropyridazine-4-carboxamides” (BAYER PHARMA AKTIENGESELLSCHAFT, priority 2016, dated 2021)
